Experimental data taken from patent US10464957B2, “Oxidized lipids and methods of use thereof” (Vascular Biogenics Ltd., priority 2014, dated 2019).

Legend:
[1] = test system: LPS (TLR4)-stimulated human monocytes (primary CD14+); test: IL-12/23p40 ELISA, LPS (TLR4)-stimulated monocytes; assay type: cell-based; details: 1 hour pretreatment, 24 hour 100 ng/ml LPS, ELISA of supernatant
Procedure: (§1) Human monocytes were obtained as described in Example 9 and FIG. 9A-9B. Human monocytes were seeded (10^6/ml) and pretreated for 1 hour with VB-201, VB-701 or VB-702, followed by 24 hour activation with 100 ng/ml LPS from Escherichia coli strain 055:B5 (Sigma, Israel) (FIG. 9A) or 300 ng/ml Pam3CSK4 (InvivoGen, San Diego, Calif., USA) (FIG. 9B) to induce cytokine production. IL-12/23p40 concentration in the supernatant was then measured by ELISA (R&D systems, Cat. No. DY1240). Cells activated with solvent (0.5% ethanol in PBS) were used as a control.

[2] = test system: RANTES-induced signaling in human monocytes (primary CD14+); test: RANTES-induced signaling, western blot; assay type: cell-based; details: RANTES 100 ng/ml for 15 minutes
Procedure: Cells (10^6/ml) were pretreated for 20 min with VB-201 (1-hexadecyl-2-(4′-carboxy)butyl-glycero-3-phosphocholine or 1-hexadecyl-2-(4′-carboxybutyl)-glycerol-3-phosphocholine) or VB-701 at the doses indicated in FIG. 2, or with solvent (Sol), followed by 15 min activation with 100 ng/ml lipopolysaccharide (LPS) or were untreated (Unt). Cells were washed and resuspended in lysis buffer containing 1:100 dithiothreitol (DTT), phosphatase and protease inhibitors (Thermo Scientific). Samples were loaded onto a precast Criterion TGX gel (Bio-Rad, Hemel Hempstead, UK) and transferred onto nitrocellulose membrane. Blots were blocked with 5% milk or BSA in Tris buffered saline and Tween 20 (TBST) for 1 h, followed by incubation with primary and secondary antibodies. Membranes were developed using an ECL kit (Thermo Scientific). The following antibodies were used for immunoblotting:
Human monocytes were obtained, treated and analyzed by western blot as described in Example 9 and FIG. 7, except that cells were induced with RANTES (100 ng/ml; Cat. No. 300-06, PeproTech, Israel) for 15 minutes. […] Accordingly, VB-702 and VB-201 inhibit RANTES-induced signaling in human monocytes (primary CD14+).

[3] = test system: Pam3CSK4 (TLR2)-stimulated human monocytes (primary CD14+); test: IL-12/23p40 ELISA, Pam3CSK4 (TLR2)-stimulated monocytes; assay type: cell-based; details: 1 hour pretreatment, 24 hour 300 ng/ml Pam3CSK4, ELISA of supernatant
Procedure: as §1

[4] = test system: livers taken from NASH-induced mice; test: Q-PCR of inflammation mediators in livers of NASH-induced mice; assay type: in vivo; details: VB-703 4 mg/kg, Q-PCR normalized to GAPDH
Procedure: (§2) Neonatal male mice exposed to low-dose streptozotocin (STZ) develop liver steatosis with diabetes. Continuous high fat diet (HFD) increases lobular inflammation with foam cell-like macrophages, showing nonalcoholic steatohepatitis (NASH) pathology. NASH was induced in 40 male mice by a single subcutaneous injection of 200 μg per mouse of STZ two days after birth and feeding HFD [57 kcal % fat]) from four weeks of age. Vehicle, VB-703 (4 mg/kg), or telmisartan (10 mg/kg) as positive control, were administered once daily for three weeks, starting from six weeks of age. Mice were sacrificed at nine weeks of age.
RNA was prepared from livers from normal mice and NASH-induced mice treated with vehicle, VB-703, or telmisartan, using RNeasy mini kit (Qiagen). For cDNA preparation, 2 μg of RNA was combined with qScript reaction mix and qScript Reverse Transcriptase (Quanta BioSciences) for 5 min at 22° C. and then for 30 min at 42° C. Reaction was ended by incubation for an additional 5 min at 85° C. All real time PCR reactions were performed using the 7300 Real Time PCR System (Applied Biosystems). Q-PCR with mouse ready set of probe with primer was used for IL-1β, IL-12/23p40 and MCP-1 (Applied Biosystems). GAPDH was used to normalize RNA levels.

[5] = test system: kidney of nephrectomized rats; test: Real-time PCR of pro-fibrotic markers in kidney of nephrectomized rats; assay type: in vivo, Sprague Dawley (SD) Rats
Procedure: Kidney RNA was extracted with an RNeasy Fibrous Tissue Mini kit (Qiagen) and after DNAse I treatment, single-stranded cDNA was synthesized from 2 μg total RNA using the qScript cDNA Synthesis Kit (Quanta Biosciences) and diluted for real-time PCR. The expression of collagen 4α, fibronectin and TGFβ was quantified using the 7300 Real Time PCR System (Applied Biosystems). The assay was performed according to manufacturer instructions using the primers (Assay ID) represented at the table below supplied by Applied Biosystems. Data were normalized to the reference gene TATA box Binding Protein (TBP) and presented as relative mRNA levels compared with Sham PBS 0.5% Eth treatment (Table 1).

[6] = test system: NASH-induced mice; test: NASH and liver fibrosis mouse model (STZ + HFD), liver histology; assay type: in vivo
Procedure: as §2
Liver pathology was used to determine the effect of VB-703 on liver inflammation and fibrosis. Histology slides were stained with hematoxylin/eosin (H&E) to assess inflammation. The inflammation score was determined as follows:
Histology slides were stained with Sirius red to determine collagen content as a marker for the extent of fibrosis.

[7] = compared to Nx PBS 0.5% Eth treatment, VB-703 4 mg/kg, telmisartan 10 mg/kg
[8] = normalized to TBP, relative to Sham PBS 0.5% Eth, mean±SEM

Row | Compound | IL-12p40 levels, LPS (TLR4)-stimulated [1] | formation of p-ERK induced by RANTES [2] | IL-12p40 levels, Pam3CSK4 (TLR2)-stimulated [3] | expression of IL-10 in livers [4] | expression of IL-12/23p40 in livers [4] | expression of the chemokine MCP-1 in livers [4] | reduction of Collagen IV expression [5, 7] | reduction of TGF-β expression [5, 7] | reduction of fibronectin expression [5, 7] | Collagen IV mRNA expression (relative mRNA level) [5, 8] | TGF-β mRNA expression (relative mRNA level) [5, 8] | fibronectin mRNA expression (relative mRNA level) [5, 8] | steatosis ([6]; VB-703 4 mg/kg once daily for three weeks) | decrease of liver fibrosis compared to vehicle treated mice (Sirius red) ([6]; VB-703 4 mg/kg, telmisartan 10 mg/kg, once daily for three weeks)
1 | CCCCCCCCCCCCCCCCOCC(COP(=O)([O-])OCC[N+](C)(C)C)OCCCCC(=O)O (centres unmarked) [VB-201, 1-hexadecyl-2-(4′-carboxy)butyl-glycero-3-phosphocholine, reference compound] | inhibit | inhibit | inhibit |  |  |  |  |  |  |  |  |  |  | 
2 | CCCCCCCCCCC(CCCCCCCC)COC[C@H](COP(=O)([O-])OCC[n+]1ccccc1)OCCCCC(=O)O (stereo partly drawn) [VB-703, (R)-1-(2′-octyl)dodecyl-2-(4′-carboxy)butyl-sn-glycero-3-phosphoric acid pyridiniumethyl ester] |  |  |  | significantly inhibited | significantly inhibited | significantly inhibited | 51% | 42% | 47% | 3.7±0.52 | 4.8±0.32 | 6.7±0.98 | did not appear to significantly alter | 58%
